{"source": "patent US20190298740A1", "about": "“METHODS AND COMPOSITIONS FOR TREATING HALLUCINATIONS AND CONDITIONS RELATED TO THE SAME” (Enterin, Inc., priority 2018, published 2019)", "assay_type_in_all_cases": "in vivo, human", "key": {"patients with PD [1]": {"system": "patients with PD", "assay": "CNS symptoms in Stage 2 (UPDRS, MMSE, PDHQ, BDI-II, direct questioning)", "settings": "for PDHQ / BDI-II / UPDRS Part 2 (Daily living) / MMSE / UPDRS Part 3 (Motor): mean (SD); for PDHQ: baseline 1.3 (2.99); for BDI-II: baseline 10.9 (7.12); for UPDRS Part 2 (Daily living): baseline 14.9 (8.11); for MMSE: baseline 28.4 (1.75); for UPDRS Part 3 (Motor): baseline 35.3 (14.35)", "source_text": "(§1) Exploratory end-points, in addition to constipation, included for example, (i) depression assessed using the Beck Depression Inventory (BDI-II) (Steer et al. 2000) and Unified Parkinson's Disease Rating Scale (UPDRS); (ii) cognition assessed using the Mini Mental State Examination (MMSE) (Palsteia et al. 2018), Unified Parkinson's Disease Rating Scale (UPDRS), and Trail Making Test (TMT); (iii) sleep and REM-behavior disorder (RBD) using a daily sleep diary, I-Button Temperature Assessment, a REM sleep behavior disorder (RBD) questionnaire (RBDQ) (Stiasny-Kolster et al. 2007), and the UPDRS; (iv) hallucinations assessed using the PD hallucinations questionnaire (PDHQ) (Papapetropoulos et al. 2008), the UPDRS, and direct questioning; (v) fatigue using the Parkinson's Disease Fatigue Scale (PFS-16) and the UPDRS; (vi) motor functions using the UPDRS; and (vii) non-motor functions using the UPDRS.\n(§2) Assessments were made at baseline and at the end of the fixed dose and washout periods. Circadian system status was evaluated by continuously monitoring wrist skin temperature (Thermochron iButton DS1921H; Maxim, Dallas) following published procedures (Sarabia et al. 2008).\nAn exploratory analysis was done with respect to the sleep data, the body temperature data, mood, fatigue, hallucinations, cognition and other motor and non-motor symptoms of PD. Continuous measurements within a subject were compared with a paired t-test and continuous measurements between subject groups were compared with a two-group t-test. Categorical data were compared with a chi-squared test or a Fisher's exact test if the expected cell counts are too small for a chi-squared test.\nCNS symptoms were evaluated at baseline and at the end of the fixed dose period and the wash-out period (Table 13). Total UPDRS score was 64.4 at baseline, 60.6 at the end of the fixed dose period and 55.7 at the end of the wash-out period (p=0.002); similarly, the motor component of the UPDRS improved from 35.3 at baseline to 33.3 at the end of fixed dose to 30.2 at the end of wash-out (p=0.006). MMSE improved from 28.4 at baseline to 28.7 during treatment and to 29.3 during wash-out (p=0.0006). […] PDHQ improved from 1.3 at baseline to 1.8 during treatment and 0.9 during wash-out (p=0.03). Hallucinations were reported by 5 patients at baseline and delusions in 1 patient. […] The frequency of arm or leg thrashing reported in the sleep diary diminished progressively from 2.2 episodes/week at baseline to 0 at maximal dose. […] Unlike stool-related indices, the improvement in many CNS symptoms persisted during wash-out."}, "patients with PD [2]": {"system": "patients with PD", "assay": "Sleep diary: total sleep time and REM-behavior disorder", "source_text": "(5) Sleep Diary (participants completed a sleep diary on a daily basis throughout the study. The diaries included time into bed and estimated time to sleep as well as wake time and duration during the night);\nas §1"}, "patients with PD [3]": {"system": "patients with PD", "assay": "Circadian rhythm of wrist skin temperature", "settings": "oral, 12 patients with evaluable data", "experimental": "(6) I-Button Temperature Assessment. The I-Button is a small, rugged self-sufficient system that measures temperature and records the results in a protected memory section. The Thermochron I-Button DS1921H (Maxim Integrated, Dallas, Tex.) was used for skin temperature measurement. I-Buttons were programmed to sample every 10 mins., and attached to a double-sided cotton sport wrist band using Velcro, with the sensor face of the I-Button placed over the inside of the wrist, on the radial artery of the dominant hand. Subjects removed and replaced the data logger when necessary (i.e., to have a bath or shower). […] From the collected data, the mesor, amplitude, acrophase (time of peak temperature), Rayleight test (an index of interdaily stability), mean waveforms are calculated);\nas §2\nCircadian rhythm of skin temperature was evaluable in 12 patients (i.e., those who had recordings that extended from baseline through washout). Circadian system functionality was evaluated by continuously monitoring wrist skin temperature using a temperature sensor (Thermochron iButton DS1921H; Maxim, Dallas, Tex.) (Sarabia et al. 2008). […]"}, "[4]": {"settings": "Stage 2, n = 34, fixed dose, listed as Squalamine (ENT-01)"}}, "note": "Entries after “also recorded” stand apart in the source; their conditions may differ."}
{"smiles": "CC(C)[C@@H](CC[C@@H](C)[C@H]1CC[C@H]2[C@@H]3[C@H](O)C[C@H]4C[C@@H](NCCCNCCCCN)CC[C@]4(C)[C@H]3CC[C@]12C)OS(=O)(=O)O", "note": "(single isomer, unassigned) [squalamine (ENT-01)]", "values": [{"measurement": "PDHQ", "setting": "patients with PD [1]; Stage 2, n = 34, fixed dose", "result": 1.8}, {"measurement": "PDHQ", "setting": "patients with PD [1]; [4]", "result": "1.8 (3.34)"}, {"measurement": "BDI-II", "setting": "patients with PD [1]; Stage 2, n = 34, fixed dose", "result": 9.9}, {"measurement": "UPDRS Part 2 (Daily living)", "setting": "patients with PD [1]; Stage 2, n = 34, fixed dose", "result": "14.7 (9.02)"}, {"measurement": "MMSE", "setting": "patients with PD [1]; Stage 2, n = 34, fixed dose", "result": 28.7}, {"measurement": "UPDRS Part 3 (Motor)", "setting": "patients with PD [1]; Stage 2, n = 34, fixed dose", "result": 33.3}, {"measurement": "UPDRS Part 3 (Motor)", "setting": "patients with PD [1]; [4]", "result": "33.3 (15.20)"}, {"measurement": "PDHQ", "setting": "patients with PD [1]; Stage 2, n = 34, wash-out", "result": 0.9}, {"measurement": "BDI-II", "setting": "patients with PD [1]; Stage 2, n = 34, wash-out", "result": 8.7}, {"measurement": "UPDRS Part 2 (Daily living)", "setting": "patients with PD [1]; Stage 2, n = 34, wash-out", "result": "14.1 (8.21)"}, {"measurement": "MMSE", "setting": "patients with PD [1]; Stage 2, n = 34, wash-out", "result": 29.3}, {"measurement": "UPDRS Part 3 (Motor)", "setting": "patients with PD [1]; Stage 2, n = 34, wash-out", "result": 30.2}, {"measurement": "UPDRS Part 3 (Motor)", "setting": "patients with PD [1]; Stage 2, n = 34, wash-out, listed as Squalamine (ENT-01)", "result": "30.2 (13.23)"}, {"measurement": "Dose at which the hallucinations disappeared", "setting": "patients with PD [1]; one patient, colonic prokinetic dose 175 mg not yet reached", "result": 100, "unit": "mg"}, {"measurement": "Dose beyond which total sleep time was consistently higher than baseline", "setting": "patients with PD [2]; Stage 2", "result": "> 125", "unit": "mg"}, {"measurement": "Total sleep time", "setting": "patients with PD [2]; at 250 mg, baseline 7.1 hours", "result": 8.4, "unit": "h"}, {"measurement": "Frequency of arm or leg thrashing (sleep diary)", "setting": "patients with PD [2]; at maximal dose, baseline 2.2", "result": 0, "unit": "episodes/week"}, {"measurement": "Circadian rhythm of skin temperature, overall", "setting": "patients with PD [3]", "result": "significant positive impact; also recorded: improved all markers of healthy circadian function"}]}
